As usually defined, the Ki is a dissociation constant, usually derived from enzyme kinetics or from competition with a known ligand. Higher therefore signals weaker binding.

Molecules are shown by their SMILES. Bounds are passed on as bounds.

This assay deals with GST-Bcl-2 (Homo sapiens (Human), UniProt P10415). Description: Time Resolved-Fluorescence Resonance Energy Transfer (TR-FRET) Bcl-2 binding assay. The note with it: GST-Bcl-2 1 nM, F-Bak peptide probe 100 nM, Tb-anti-GST antibody 1 nM; Ki by Wang's equation. The essentials: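 Competition TR-FRET: GST-Bcl-2 with fluorescent Bak peptide probe and Tb-anti-GST antibody, compounds serially diluted from 50 μM (2× start, 10% DMSO).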
On the technique in general: TR-FRET usually uses a lanthanide donor and a delayed reading to cut background.

Chain of GST-Bcl-2 (P10415 whole entry): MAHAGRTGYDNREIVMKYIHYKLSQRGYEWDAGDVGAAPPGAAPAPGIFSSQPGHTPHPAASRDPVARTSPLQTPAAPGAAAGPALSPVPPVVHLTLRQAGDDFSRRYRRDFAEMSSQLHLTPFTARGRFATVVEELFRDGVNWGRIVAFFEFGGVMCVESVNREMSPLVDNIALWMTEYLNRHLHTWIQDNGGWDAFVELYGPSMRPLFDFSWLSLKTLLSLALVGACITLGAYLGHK

On to `CN1CCC(Nc2ccc(S(=O)(=O)NC(=O)c3ccc(N4CCN(CC5=C(c6ccc(Cl)cc6)CC(C)(C)CC5)CC4)cc3OCc3csc(NC(=O)OC(C)(C)C)n3)cc2[N+](=O)[O-])CC1` [Example 222, tert-butyl 4-[(5-(4-{[2-(4-chlorophenyl)-4,4-dimethylcyclohex-1-en-1-yl]methyl}piperazin-1-yl)-2-{[({4-[(1-methylpiperidin-4-yl)amino]-3-nitrophenyl}sulfonyl)amino]carbonyl}phenoxy)methyl]-1,3-thiazol-2-ylcarbamate], for which the Ki is over 1200 nM.

On to `COCCN1CCC(Nc2ccc(S(=O)(=O)NC(=O)c3ccc(N4CCN(CC5=C(c6ccc(Cl)cc6)CC(C)(C)CC5)CC4)cc3Oc3cccc(Cl)c3)cc2[N+](=O)[O-])CC1` [Example 173, 2-(3-chlorophenoxy)-4-(4-{[2-(4-chlorophenyl)-4,4-dimethylcyclohex-1-en-1-yl]methyl}piperazin-1-yl)-N-[(4-{[1-(2-methoxyethyl)piperidin-4-yl]amino}-3-nitrophenyl)sulfonyl]benzamide], for which the affinity corresponds to a Ki of 0.019 nM.

`Nc1cccc(Oc2cc(N3CCN(Cc4ccccc4-c4ccc(Cl)cc4)CC3)ccc2C(=O)NS(=O)(=O)c2ccc(NCC3CCOCC3)c([N+](=O)[O-])c2)c1` [Example 19, 2-(3-aminophenoxy)-4-(4-((4′-chloro-1,1′-biphenyl-2-yl)methyl)piperazin-1-yl)-N-((3-nitro-4-((tetrahydro-2H-pyran-4-ylmethyl)amino)phenyl)sulfonyl)benzamide] registered a Ki of 1.68 nM.

Compound `CC1(C)CCC(CN2CCN(c3ccc(C(=O)NS(=O)(=O)c4ccc(NCC5CCOCC5)c([N+](=O)[O-])c4)c(Oc4cnc5[nH]ccc5c4Cl)c3)CC2)=C(c2ccc(Cl)cc2)C1` [Example 384, 4-(4-{[2-(4-chlorophenyl)-4,4-dimethylcyclohex-1-en-1-yl]methyl}piperazin-1-yl)-2-[(4-chloro-1H-pyrrolo[2,3-b]pyridin-5-yl)oxy]-N-({3-nitro-4-[(tetrahydro-2H-pyran-4-ylmethyl)amino]phenyl}sulfonyl)benzamide] displayed a Ki of 6.23 nM.

Compound `CN(C)CCCNc1ccc(S(=O)(=O)NC(=O)c2ccc(N3CCN(CC4=C(c5ccc(Cl)cc5)CC(C)(C)CC4)CC3)cc2Oc2cccc3c2c(CN2CCN(C)CC2)cn3CN2CCN(C)CC2)cc1[N+](=O)[O-]` [Example 212, 2-({1,3-bis[(4-methylpiperazin-1-yl)methyl]-1H-indol-4-yl}oxy)-4-(4-{[2-(4-chlorophenyl)-4,4-dimethylcyclohex-1-en-1-yl]methyl}piperazin-1-yl)-N-[(4-{[3-(dimethylamino)propyl]amino}-3-nitrophenyl)sulfonyl]benzamide] returned a Ki of 0.375 nM.

The compound `N#Cc1ccc(Oc2cc(N3CCN(Cc4ccccc4-c4ccc(Cl)cc4)CC3)ccc2C(=O)NS(=O)(=O)c2ccc(NCC3CCOCC3)c([N+](=O)[O-])c2)cc1` [Example 72, 4-(4-((4′-chloro-1,1′-biphenyl-2-yl)methyl)piperazin-1-yl)-2-(4-cyanophenoxy)-N-((3-nitro-4-((tetrahydro-2H-pyran-4-ylmethyl)amino)phenyl)sulfonyl)benzamide] returned a Ki of 31.7 nM.

On to `CN(C)CCCNc1ccc(S(=O)(=O)NC(=O)c2ccc(N3CCN(CC4=C(c5ccc(Cl)cc5)CC(C)(C)CC4)CC3)cc2Oc2cccc3[nH]cc(CN4CCN(C)CC4)c23)cc1[N+](=O)[O-]` [Example 213, 4-(4-{[2-(4-chlorophenyl)-4,4-dimethylcyclohex-1-en-1-yl]methyl}piperazin-1-yl)-N-[(4-{[3-(dimethylamino)propyl]amino}-3-nitrophenyl)sulfonyl]-2-({3-[(4-methylpiperazin-1-yl)methyl]-1H-indol-4-yl}oxy)benzamide], for which affinity was put at a Ki of 0.031 nM.

For the origin of these results see patent US8952157B2, “Apoptosis-inducing agents for the treatment of cancer and immune and autoimmune diseases” (AbbVie Inc., priority 2008, dated 2015).
